This is an account of results in ChEMBL document CHEMBL1275589, “Molecular epidemiology, sequence types, and plasmid analyses of KPC-producing Klebsiella pneumoniae strains in Israel” (2010).

What is called MIC is the smallest concentration in the dilution series that meets the test's criterion for growth inhibition.

In assay [1] the test system is Klebsiella pneumoniae. Description: Antimicrobial activity against carbapenem-resistant KPC-2 producing Klebsiella pneumoniae 469 ST 277 expressing beta-lactamase SHV-27, CTX-M-15 and OXA-4 by Etest. In kind it is functional.
The test system of assay [2] is Klebsiella pneumoniae. Nature of the assay: Antimicrobial activity against KPC-3 producing Klebsiella pneumoniae 549 ST 327 expressing beta-lactamase TEM-1 and CTX-M-2 by Etest. In kind it is functional.
Assay [3] relates to Klebsiella pneumoniae. Description: Antimicrobial activity against carbapenem-resistant KPC-2 producing Klebsiella pneumoniae 475 transformant by Etest. In kind it is functional.
Assay [4] concerns Klebsiella pneumoniae. Nature of the assay: Antimicrobial activity against carbapenem-resistant KPC-2 producing Klebsiella pneumoniae 523 ST 340 expressing beta-lactamase TEM-1, SHV-11 and OXA-2 by Etest. In kind it is functional.
The test system of assay [5] is Klebsiella pneumoniae. Nature of the assay: Antimicrobial activity against carbapenem-resistant KPC-2 producing Klebsiella pneumoniae 526 transformant by Etest. In kind it is functional.
Assay [6] has as its system Klebsiella pneumoniae. Nature of the assay: Antimicrobial activity against carbapenem-resistant KPC-2 producing Klebsiella pneumoniae 523 transformant by Etest. In kind it is functional.
Assay [7] concerns Klebsiella pneumoniae. Description: Antimicrobial activity against KPC-3 producing Klebsiella pneumoniae 557 transformant by Etest. In kind it is functional.
Assay [8] deals with Klebsiella pneumoniae. Description: Antimicrobial activity against carbapenem-resistant KPC-2 producing Klebsiella pneumoniae 365 ST 376 expressing beta-lactamase SHV-1, CTX-M-15 and OXA-4 by Etest.
In assay [9] the test system is Klebsiella pneumoniae. Nature of the assay: Antimicrobial activity against carbapenem-resistant KPC-2 producing Klebsiella pneumoniae 588 transformant by Etest. In kind it is functional.
Assay [10] relates to Klebsiella pneumoniae. Description: Antimicrobial activity against carbapenem-resistant KPC-2 producing Klebsiella pneumoniae 365 transformant by Etest. In kind it is functional.
In assay [11] the test system is Klebsiella pneumoniae. Description: Antimicrobial activity against carbapenem-resistant KPC-2 producing Klebsiella pneumoniae 531 transformant by Etest. In kind it is functional.
The test system of assay [12] is Klebsiella pneumoniae. Nature of the assay: Antimicrobial activity against carbapenem-resistant KPC-2 producing Klebsiella pneumoniae 526 ST 376 expressing beta-lactamase SHV-1 by Etest. In kind it is functional.
The test system of assay [13] is Klebsiella pneumoniae. Description: Antimicrobial activity against carbapenem-resistant KPC-2 producing Klebsiella pneumoniae 469 transformant by Etest. In kind it is functional.
In assay [14] the test system is Klebsiella pneumoniae. Description: Antimicrobial activity against carbapenem-resistant KPC-2 producing Klebsiella pneumoniae 525 transformant by Etest. In kind it is functional.
The test system of assay [15] is Klebsiella pneumoniae. Nature of the assay: Antimicrobial activity against carbapenem-resistant KPC-2 producing Klebsiella pneumoniae 531 ST 376 expressing beta-lactamase SHV-1 by Etest. In kind it is functional.
For assay [16], the system named is Klebsiella pneumoniae. Nature of the assay: Antimicrobial activity against KPC-3 producing Klebsiella pneumoniae 557 ST 258 expressing beta-lactamase TEM-1 by Etest.
Assay [17] relates to Klebsiella pneumoniae. Nature of the assay: Antimicrobial activity against carbapenem-resistant KPC-2 producing Klebsiella pneumoniae 475 ST 277 expressing beta-lactamase SHV-27, CTX-M-15 and OXA-4 by Etest. In kind it is functional.
Assay [18] has as its system Klebsiella pneumoniae. Nature of the assay: Antimicrobial activity against carbapenem-resistant KPC-2 producing Klebsiella pneumoniae 525 ST 376 expressing beta-lactamase SHV-1 by Etest. In kind it is functional.
Assay [19] relates to Klebsiella pneumoniae. Nature of the assay: Antimicrobial activity against KPC-3 producing Klebsiella pneumoniae 549 transformant by Etest. In kind it is functional.
The subject of assay [20] is Klebsiella pneumoniae. Nature of the assay: Antimicrobial activity against carbapenem-resistant KPC-2 producing Klebsiella pneumoniae 588 ST 340 expressing beta-lactamase TEM-1 and SHV-11 by Etest. In kind it is functional.
Assay [21] deals with Escherichia coli. Description: Antimicrobial activity against Escherichia coli Genehogs by Etest. In kind it is functional.
In assay [22] the test system is Klebsiella pneumoniae. Description: Antimicrobial activity against carbapenem-resistant KPC-2 producing Klebsiella pneumoniae 525 transformant by agar dilution method in presence of beta-lactamase inhibitor Tazobactam. In kind it is functional. For orientation: Agar dilution tests growth on a series of plates holding different concentrations.
The test system of assay [23] is Klebsiella pneumoniae. Description: Antimicrobial activity against carbapenem-resistant KPC-2 producing Klebsiella pneumoniae 475transformant by agar dilution method in presence of beta-lactamase inhibitor Tazobactam. In kind it is functional.
Assay [24] relates to Klebsiella pneumoniae. Nature of the assay: Antimicrobial activity against carbapenem-resistant KPC-2 producing Klebsiella pneumoniae 588 ST 340 expressing beta-lactamase TEM-1 and SHV-11 by agar dilution method in presence of beta-lactamase inhibitor Tazobactam. In kind it is functional.
Assay [25] relates to Klebsiella pneumoniae. Description: Antimicrobial activity against KPC-3 producing Klebsiella pneumoniae 557 transformant by agar dilution method in presence of beta-lactamase inhibitor Tazobactam. In kind it is functional.
Assay [26] relates to Escherichia coli. Nature of the assay: Antimicrobial activity against Escherichia coli Genehogs by agar dilution method in presence of beta-lactamase inhibitor Tazobactam. In kind it is functional.
Assay [27] concerns Klebsiella pneumoniae. Description: Antimicrobial activity against carbapenem-resistant KPC-2 producing Klebsiella pneumoniae 523 ST 340 expressing beta-lactamase TEM-1, SHV-11 and OXA-2 by agar dilution method in presence of beta-lactamase inhibitor Tazobactam. In kind it is functional.
The test system of assay [28] is Klebsiella pneumoniae. Nature of the assay: Antimicrobial activity against KPC-3 producing Klebsiella pneumoniae 557 ST 258 expressing beta-lactamase TEM-1 by agar dilution method in presence of beta-lactamase inhibitor Tazobactam.
Assay [29] relates to Klebsiella pneumoniae. Description: Antimicrobial activity against carbapenem-resistant KPC-2 producing Klebsiella pneumoniae 588 transformant by agar dilution method in presence of beta-lactamase inhibitor Tazobactam. In kind it is functional.
Assay [30] concerns Klebsiella pneumoniae. Nature of the assay: Antimicrobial activity against carbapenem-resistant KPC-2 producing Klebsiella pneumoniae 365 ST 376 expressing beta-lactamase SHV-1, CTX-M-15 and OXA-4 by agar dilution method in presence of beta-lactamase inhibitor Tazobactam.
Assay [31] has as its system Klebsiella pneumoniae. Nature of the assay: Antimicrobial activity against carbapenem-resistant KPC-2 producing Klebsiella pneumoniae 526 transformant by agar dilution method in presence of beta-lactamase inhibitor Tazobactam. In kind it is functional.
Assay [32] concerns Klebsiella pneumoniae. Nature of the assay: Antimicrobial activity against KPC-3 producing Klebsiella pneumoniae 549 ST 327 expressing beta-lactamase TEM-1 and CTX-M-2 by agar dilution method in presence of beta-lactamase inhibitor Tazobactam. In kind it is functional.
In assay [33] the test system is Klebsiella pneumoniae. Nature of the assay: Antimicrobial activity against carbapenem-resistant KPC-2 producing Klebsiella pneumoniae 531 transformant by agar dilution method in presence of beta-lactamase inhibitor Tazobactam. In kind it is functional.
Assay [34] has as its system Klebsiella pneumoniae. Description: Antimicrobial activity against KPC-3 producing Klebsiella pneumoniae 549 transformant by agar dilution method in presence of beta-lactamase inhibitor Tazobactam. In kind it is functional.
The test system of assay [35] is Klebsiella pneumoniae. Nature of the assay: Antimicrobial activity against carbapenem-resistant KPC-2 producing Klebsiella pneumoniae 526 ST 376 expressing beta-lactamase SHV-1 by agar dilution method in presence of beta-lactamase inhibitor Tazobactam. In kind it is functional.
Assay [36] deals with Klebsiella pneumoniae. Description: Antimicrobial activity against carbapenem-resistant KPC-2 producing Klebsiella pneumoniae 523transformant by agar dilution method in presence of beta-lactamase inhibitor Tazobactam. In kind it is functional.
In assay [37] the test system is Klebsiella pneumoniae. Nature of the assay: Antimicrobial activity against carbapenem-resistant KPC-2 producing Klebsiella pneumoniae 475 ST 277 expressing beta-lactamase SHV-27, CTX-M-15 and OXA-4 by agar dilution method in presence of beta-lactamase inhibitor Tazobactam. In kind it is functional.
The test system of assay [38] is Klebsiella pneumoniae. Nature of the assay: Antimicrobial activity against carbapenem-resistant KPC-2 producing Klebsiella pneumoniae 531 ST 376 expressing beta-lactamase SHV-1 by agar dilution method in presence of beta-lactamase inhibitor Tazobactam. In kind it is functional.
Assay [39] relates to Klebsiella pneumoniae. Description: Antimicrobial activity against carbapenem-resistant KPC-2 producing Klebsiella pneumoniae 469 ST 277 expressing beta-lactamase SHV-27, CTX-M-15 and OXA-4 by agar dilution method in presence of beta-lactamase inhibitor Tazobactam. In kind it is functional.
Assay [40] relates to Klebsiella pneumoniae. Nature of the assay: Antimicrobial activity against carbapenem-resistant KPC-2 producing Klebsiella pneumoniae 365 transformant by agar dilution method in presence of beta-lactamase inhibitor Tazobactam. In kind it is functional.
For assay [41], the system named is Klebsiella pneumoniae. Description: Antimicrobial activity against carbapenem-resistant KPC-2 producing Klebsiella pneumoniae 525 ST 376 expressing beta-lactamase SHV-1 by agar dilution method in presence of beta-lactamase inhibitor Tazobactam. In kind it is functional.
Assay [42] concerns Klebsiella pneumoniae. Description: Antimicrobial activity against carbapenem-resistant KPC-2 producing Klebsiella pneumoniae 469 transformant by agar dilution method in presence of beta-lactamase inhibitor Tazobactam. In kind it is functional.

Values after ≈ are worked out from the molar mass of the structure shown.

On to `CN(C)c1cc(NC(=O)CNC(C)(C)C)c(O)c2c1C[C@H]1C[C@H]3[C@H](N(C)C)C(O)=C(C(N)=O)C(=O)[C@@]3(O)C(O)=C1C2=O` [TIGECYCLINE], for which the minimum inhibitory concentration (MIC) with Klebsiella pneumoniae [1] turned out to be 1 µg/mL (≈ 1.71 µM); against Klebsiella pneumoniae [2] it was 0.75 µg/mL (≈ 1.28 µM); against Klebsiella pneumoniae [3], 0.125 µg/mL (≈ 0.213 µM); against Klebsiella pneumoniae [4] it was 0.5 µg/mL (≈ 0.854 µM); in the assay with Klebsiella pneumoniae [5] it was 0.125 µg/mL (≈ 0.213 µM); in the assay with Klebsiella pneumoniae [6], 0.125 µg/mL (≈ 0.213 µM). For the same compound, the MIC with Klebsiella pneumoniae [7] is 0.125 µg/mL (≈ 0.213 µM); against Klebsiella pneumoniae [8] it was 1 µg/mL (≈ 1.71 µM); in the assay on Klebsiella pneumoniae [9], 0.125 µg/mL (≈ 0.213 µM); against Klebsiella pneumoniae [10], 0.125 µg/mL (≈ 0.213 µM); in the assay with Klebsiella pneumoniae [11], 0.125 µg/mL (≈ 0.213 µM); against Klebsiella pneumoniae [12], 1.5 µg/mL (≈ 2.56 µM). In addition, the MIC in the assay on Klebsiella pneumoniae [13] amounted to 0.125 µg/mL (≈ 0.213 µM); with Klebsiella pneumoniae [14], 0.125 µg/mL (≈ 0.213 µM); with Klebsiella pneumoniae [15], 1.5 µg/mL (≈ 2.56 µM); against Klebsiella pneumoniae [16], 4 µg/mL (≈ 6.83 µM); with Klebsiella pneumoniae [17], 4 µg/mL (≈ 6.83 µM); in the assay with Klebsiella pneumoniae [18], 1 µg/mL (≈ 1.71 µM). Moreover, the MIC worked out at 0.19 µg/mL (≈ 0.324 µM) in the assay with Klebsiella pneumoniae [19], 2 µg/mL (≈ 3.41 µM) in the assay with Klebsiella pneumoniae [20] and 0.094 µg/mL (≈ 0.161 µM) in the assay on Escherichia coli [21].
Take COLISTIN: the minimal inhibitory concentration (MIC) against Klebsiella pneumoniae [1] came to 0.125 µg/mL; against Klebsiella pneumoniae [2], 0.125 µg/mL; with Klebsiella pneumoniae [3], 0.032 µg/mL; in the assay on Klebsiella pneumoniae [4], 0.125 µg/mL; in the assay with Klebsiella pneumoniae [5], 0.032 µg/mL; in the assay on Klebsiella pneumoniae [6], 0.047 µg/mL. In addition, the MIC in the assay with Klebsiella pneumoniae [7] came out at 0.032 µg/mL; in the assay on Klebsiella pneumoniae [9] it was 0.047 µg/mL; against Klebsiella pneumoniae [10] it was 0.032 µg/mL; against Klebsiella pneumoniae [11], 0.032 µg/mL; with Klebsiella pneumoniae [12] it was 0.125 µg/mL; in the assay with Klebsiella pneumoniae [13], 0.032 µg/mL. The MIC with Klebsiella pneumoniae [14] turned out to be 0.032 µg/mL; in the assay on Klebsiella pneumoniae [15] it was 0.125 µg/mL; against Klebsiella pneumoniae [17], 0.19 µg/mL; against Klebsiella pneumoniae [18], 0.125 µg/mL; in the assay with Klebsiella pneumoniae [19], 0.032 µg/mL; against Klebsiella pneumoniae [20] it was 0.19 µg/mL. Further, the lowest concentration to inhibit growth against Escherichia coli [21] (MIC) was 0.125 µg/mL.
As for `CCN1CCN(C(=O)N[C@@H](C(=O)N[C@@H]2C(=O)N3[C@@H]2SC(C)(C)[C@@H]3C(=O)O)c2ccccc2)C(=O)C1=O` [PIPERACILLIN], the MIC with Klebsiella pneumoniae [22] was 64 µg/mL; in the assay on Klebsiella pneumoniae [23], more than 128 µg/mL; in the assay with Klebsiella pneumoniae [24], more than 128 µg/mL; in the assay on Klebsiella pneumoniae [25], 64 µg/mL; in the assay on Escherichia coli [26], less than 4 µg/mL; with Klebsiella pneumoniae [27], 128 µg/mL. The MIC in the assay with Klebsiella pneumoniae [28] is more than 320 µg/mL; in the assay with Klebsiella pneumoniae [29], more than 128 µg/mL; in the assay on Klebsiella pneumoniae [30], more than 128 µg/mL; with Klebsiella pneumoniae [31] it was more than 128 µg/mL; with Klebsiella pneumoniae [32], more than 320 µg/mL; in the assay with Klebsiella pneumoniae [33], 64 µg/mL. Moreover, the MIC in the assay on Klebsiella pneumoniae [34] was 64 µg/mL; in the assay on Klebsiella pneumoniae [35] it was more than 128 µg/mL; with Klebsiella pneumoniae [36], more than 128 µg/mL; with Klebsiella pneumoniae [37], more than 128 µg/mL; in the assay with Klebsiella pneumoniae [38], more than 128 µg/mL; in the assay with Klebsiella pneumoniae [39], more than 128 µg/mL. The MIC in the assay with Klebsiella pneumoniae [40], with Klebsiella pneumoniae [41] and in the assay with Klebsiella pneumoniae [42] was more than 128 µg/mL in each case.
